Values joined by “and” are separate entries in the source; they are usually repeats but may differ in a detail not shown here. Equal entries are not always repeated.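 These data come from cells grown in 96-well plates and exposed to compound for 48 hours at five concentrations. GI50 is the concentration that inhibits growth by half. Definition used: TGI = concentration required for complete inhibition of growth.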 Some results are limits rather than exact numbers.

Our source for the GI50 and TGI values is PubChem BioAssay (NCI).

Holding throughout (assay): NCI-60 cell line screen, 48 h
In assay [1] the test system is ACHN renal.
The subject of assay [2] is PC-3 prostate.
Assay [3] concerns HCT-116 colon.
Assay [4] has as its system 786-0 renal.
For assay [5], the system named is SK-MEL-28 melanoma.
Assay [6] deals with A498 renal.
The subject of assay [7] is U251 CNS.
Assay [8] concerns RPMI-8226 leukemia.
Assay [9] relates to SK-MEL-5 melanoma.
The test system of assay [10] is SF-539 CNS.

Turning to `O=C1COCCN1c1ccc(NCc2cn(C(=O)c3ccc(Cl)cc3)c3ccccc23)cc1`, the GI50 is 3.79 µM in [1]; 4.78 µM in assay [2]; 0.247 µM in assay [3]; 2.7 µM in [4]; 17.8 µM in assay [5]; 0.0306 µM in [6]. In addition, the GI50 in assay [7] is 1.19 µM; in assay [8], 2.13 µM; in [9], 4.1 µM; in assay [10] it was 8.49 µM. The TGI in assay [1] is 27.5 µM; in assay [2] it was 49.5 µM; in [3], 19.8 µM; in [4], greater than 100 µM; in assay [5], 80.9 µM; in assay [6], 0.142 µM. Besides, the TGI was determined as 25.8 µM in [7], 15.8 µM in assay [8], 16.3 µM in [9] and 26.2 µM in assay [10].
With `O=C1NC(c2ccccc2)N=C2Oc3ccccc3C=C12` (stereo not drawn), the TGI in [1] was greater than 100 µM; in [2], greater than 100 µM; in assay [3], greater than 100 µM; in assay [4] it was greater than 39 µM; in assay [5] it was greater than 100 µM; in assay [6], greater than 81.8 µM. The TGI is greater than 100 µM in [7], greater than 100 µM in assay [8], greater than 100 µM in [9] and 17.6 µM in assay [10].
Consider `CC(=O)n1c(-c2ccc(Cl)c(Cl)c2)cn(-c2ccc(Cl)cc2)c1=O`, for which the GI50 in [1] is 27.8 µM; in [2], 26.6 µM; in assay [3], 19.6 µM; in assay [4], 13.4 µM; in [5], greater than 100 µM; in assay [6], 20.9 µM. Also, the GI50 in assay [7] is 16.3 µM; in assay [8] it was 18.8 µM; in assay [9], 32.2 µM; in assay [10], 14.1 µM. Further, the TGI is greater than 100 µM in [1]; greater than 100 µM in assay [2]; greater than 100 µM in assay [3]; 32.9 µM in [4]; greater than 100 µM in assay [5]; 47 µM in [6]. Moreover, the TGI in assay [7] was 37.5 µM; in [8], 67.7 µM; in assay [9] it was greater than 100 µM; in assay [10], 31.9 µM.
As to `CC(C)=CCc1cc(C2COc3cc4c(c(O)c3C2=O)C=CC(C)(C)O4)c(O)cc1O` (stereo not drawn), the TGI in assay [1] turned out to be 32.4 µM; in assay [2] it was 24.9 µM; in [3], 54.5 µM; in assay [4], 36.7 µM; in assay [5], 50.4 µM; in assay [6], 33.2 µM. For the same molecule, the TGI in assay [7] was determined as 35.7 µM; in [8], 24.4 µM; in [9] it was 25 µM; in assay [10], 34.3 µM.
For `COc1ccc2c(c1OC)C(=O)O[C@@H]2[C@H]1c2c(c(Br)c3c(c2OC)OCO3)CCN1C`, the GI50 was greater than 100 µM in assay [1]; 9.11 µM in [2]; 4.69 µM in assay [3]; 12 µM in assay [4]; greater than 100 µM in assay [5]; 27.6 µM in assay [6]. For the same molecule, the GI50 was 8.8 µM in assay [7], 6.97 µM in assay [8], 4.12 µM in assay [9] and 7.09 µM in [10]. Besides, the TGI in assay [1], in [2], in assay [3], in assay [4], in [5] and in assay [6] was greater than 100 µM throughout. In addition, the TGI in assay [7], in assay [8], in assay [9] and in assay [10] was greater than 100 µM in each case.
Consider `COC(=O)Nc1nc2ccc(S(=O)(=O)c3ccc(NC(=O)Nc4cc(C(F)(F)F)ccc4F)cc3)cc2[nH]1`, for which the GI50 in assay [1], in assay [2], in assay [3], in assay [4], in [5] and in assay [6] was greater than 25 µM throughout. For the same molecule, the GI50 in assay [7], in assay [8], in [9] and in [10] was greater than 25 µM each time. Besides, the TGI in [1], in assay [2], in assay [3], in assay [4], in assay [5] and in assay [6] was greater than 25 µM throughout. The TGI in [7], in [8], in assay [9] and in assay [10] was greater than 25 µM throughout.
For the molecule `c1ccc2c(CN3CCC(C4CCN(Cc5cccc6ccccc56)CC4)CC3)cccc2c1`, the TGI in [1] was greater than 100 µM; in assay [2] it was greater than 100 µM; in [3], 21.1 µM and > 58.2 µM; in assay [4], 32.2 µM and 34.5 µM; in [5], 2.85 µM and 8.19 µM; in [6], > 72.8 µM and 86 µM. In addition, the TGI in assay [7] was 25.5 µM and 47.6 µM; in assay [8], 15 µM and 10.9 µM; in [9], 14.2 µM and 9.41 µM; in [10], 9.53 µM and 18 µM. Moreover, the GI50 in [3] is 7.28 µM and 16.3 µM; in assay [5], 1.48 µM and 3.1 µM; in [6], 7.34 µM; in assay [10], 3.63 µM and 8.99 µM.
For `CN(C)c1ncnc2c1ccn2C1OC(CO)C(O)C1O` (stereo not drawn), the GI50 in assay [1] was 3.18 µM; in assay [2], 0.477 µM; in assay [3], 2.97 µM; in assay [4], 3.98 µM; in assay [5], greater than 100 µM; in [6] it was 3.49 µM. The GI50 in [7] is greater than 100 µM; in assay [8] it was 5.88 µM; in assay [9], greater than 100 µM; in assay [10], greater than 33.5 µM. The TGI was greater than 100 µM in assay [1]; 11.5 µM in [2]; greater than 100 µM in [3]; 97.8 µM in assay [4]; greater than 100 µM in [5]; greater than 100 µM in assay [6]. In addition, the TGI is greater than 100 µM in assay [7], greater than 71.4 µM in [8], greater than 100 µM in [9] and greater than 100 µM in [10].
Consider `O=c1[nH]nc(-c2ccccc2)c2c(-c3ccccc3)onc12`, for which the GI50 in assay [1] was 3.38 µM; in assay [2] it was 2.12 µM; in assay [3], 0.333 µM; in assay [4], 5.47 µM; in assay [5], 0.793 µM; in assay [6] it was 0.287 µM. Also, the GI50 in assay [7] was 0.517 µM; in assay [8], 0.474 µM; in [9], 0.352 µM; in assay [10], 0.351 µM. Further, the TGI in [1] is greater than 100 µM; in assay [2] it was greater than 100 µM; in assay [3], greater than 100 µM; in assay [4], greater than 100 µM; in assay [5] it was greater than 100 µM; in assay [6] it was 3.69 µM. The values for the TGI in assay [7], in assay [8] and in assay [10] were greater than 100 µM, greater than 55.4 µM and 1.79 µM, respectively.
Consider `COc1cc2nncc(SCc3ccc(Cl)c(Cl)c3)c2cc1OC`, for which the TGI in [1], in assay [2], in assay [3], in assay [4], in [5] and in assay [6] was greater than 100 µM each time. Besides, the TGI in assay [7], in assay [8], in assay [9] and in assay [10] was greater than 100 µM throughout.
Take `NS(=O)(=O)c1ccc(N2N=C(c3cccs3)CC2c2ccccc2O)cc1` (stereo not drawn): the GI50 in assay [1] was 2.9 µM; in assay [2], 1.05 µM; in assay [3], 1.15 µM; in assay [4], 1.84 µM; in assay [5], 2.12 µM; in assay [6] it was 0.835 µM. Moreover, the GI50 in [7] is 0.998 µM; in assay [8], 1.16 µM; in assay [9] it was 1.47 µM; in assay [10] it was 0.706 µM. Also, the TGI worked out at 13 µM in assay [1]; 4.38 µM in assay [2]; 3.96 µM in [3]; 8.45 µM in [4]; 8.62 µM in assay [5]; 4.01 µM in assay [6]. The TGI in assay [7] was found to be 3.73 µM; in assay [8], 5.29 µM; in [9], 5.68 µM; in [10], 1.76 µM.
